Experimental findings from patent publication US12617783B2, “Heterocyclic GLP-1R agonists” (BIOMEA FUSION, INC., priority 2024, dated 2026) are described below.

One may read the AUC(0-inf) as the area under the concentration-time curve extrapolated to infinity. What is called clearance is the volume of plasma or blood freed of the substance per unit of time. Read a low clearance as inefficient removal. By half-life is commonly meant how long it takes for the measured level to halve. High values mean slow loss, low ones fast loss. One may read the Cmax as the peak of the concentration-time curve. One may read the Tmax as the time from dosing to the highest level. Usually EC50 stands for the concentration giving half of the maximal effect.

Where two headings read alike, the source gives them in different places. Bounds are passed on as bounds.

The conditions of series [1]: male, cynomolgus monkey, in vivo.
Protocol: (§1) Pharmacokinetic Analysis of the Compound 36, Compound 121, Compound 214, and Orforglipron in Cynomolgus Monkeys
(§2) Non naïve male cynomolgus monkeys (n=3 monkeys/group) were fasted overnight and fed 4 hours post dose. Compounds of the present application were formulated in 10% polyethylene glycol 400/10% propylene glycol/80% glycine buffer (100 mM glycine, 64 mM NaOH, pH 10).
(§3) The compound was administered by i.v. infusion for 30 minutes at 0.12 mg/kg (dose volume 1 mL/kg at a speed of 2 mL/kg/h) or orally doses of 0.36 mg/kg. Blood samples were collected pre-dose and 0.25, 0.5 (just before the infusion is stopped), 0.75, 1, 1.5, 2.5, 4, 8, 16, 24 hr post dose for i.v. administration group. Blood samples were also collected pre-dose, 0.5, 1, 2, 3, 4, 8, 16 and 24 hr after administration in orally dosing group.
Series [2] is described as follows: Pharmacokinetic analysis in male SD rats. The format is in vivo. The settings on record: for Oral F: 5.0 mg/kg po vs 1.0 mg/kg iv; for AUC(0-inf) / clearance / half-life / Vd / Cmax / Tmax: Sprague-Dawley (SD), rat, plasma; for Vd: read-out: Vdss; for exposure compared with Orforglipron: same doses (iv 1 mg/kg and po 5 mg/kg). Here is the method: The rats have free access to food and water. Blood samples were collected pre-dose and 0.083, 0.25, 0.5, 1, 2, 4, 8, 24 hours post dose for i.v. administration group. Blood samples were also collected pre-dose and 0.25, 0.5, 1, 2, 4, 8, and 24 hours after administration in orally dosing group.

A short description of the next series: in vivo. The settings on record: male, cynomolgus monkey.
Series [3] has as its target T1, human GLP-1R (Homo sapiens, UniProt P43220).
T1 construct: host or cells: HEK293
Put plainly: GLP-1R cAMP assay (Example B1a, HTRF, 30 min at room temperature). The format is cell-based. The note with it: for EC50 Ratio: potency ratio of stereoisomer pair (less potent / more potent isomer). The gist of the method: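 Competitive HTRF read-out of cAMP after 30 min room-temperature stimulation, BETP absent, of human GLP-1R-HEK293 cells (1,000/well) in HEPES buffer with 500 μM IBMX and 0.1% BSA. Activation normalised to GLP-1(7-37) positive control. EC50 from 4-parameter non-linear regression.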
In general terms: cAMP levels reflect the balance of adenylyl cyclase and phosphodiesterase activity.

Series [4] is described as follows: Pharmacokinetic analysis in cynomolgus monkeys.
Protocol: as §1, §2, §3
The test system of series [5] is islets from a non-diabetic donor. Put plainly: Glucose-stimulated insulin secretion (GSIS) in non-diabetic donor islets cultured ex vivo. The note with it: compared with orforglipron or DMSO. It counts as cell-based. On the procedure: Donor islets cultured ex vivo were assayed for GSIS in the presence of compound 36 (cpd 36), orforglipron or DMSO. Basal insulin secretion, stimulated insulin secretion and secretion index were measured.
Donor islets cultured ex vivo were assayed for GSIS in the presence of compound 214, orforglipron or DMSO. Basal insulin secretion, stimulated insulin secretion and secretion index were measured.

For series [6], the target named is T1, human GLP-1R. Put plainly: GLP-1R cAMP assay (Example B1b, HTRF, 30 min at 37°). The settings on record: cAMP accumulation in HEK293 expressing human GLP-1R, no BETP, 30 min at 37° (Method B1b), Table 1. The format is cell-based. The gist of the method: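 HEK293 cells expressing human GLP-1R, at 1,000/well in HEPES buffer with 500 μM IBMX and 0.1% BSA, were given serially diluted compounds without BETP for 30 min at 37°. cAMP was measured by competitive HTRF (665/620 ratio) and normalised to GLP-1(7-37) as positive control. EC50 from 4-parameter fit.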

[7] abbreviates: Table 1d, stereoisomer pairs, read-out: EC50.
[8] abbreviates: cAMP accumulation in HEK293 expressing human GLP-1R, no BETP, 30 min room temperature (Method B1a, compounds ID 1-609), Table 1, read-out: EC50.
The mark [9] stands for this setting: text to Table 1d, bridge atoms configured into the plane or away from the reader, read-out: potency (EC50).
The mark [10] stands for this setting: male, cynomolgus monkey, plasma, iv, 0.12 mg/kg.
Where [11] appears, read: male, cynomolgus monkey, plasma, po, 0.36 mg/kg.

T1 sequence (P43220 24-463): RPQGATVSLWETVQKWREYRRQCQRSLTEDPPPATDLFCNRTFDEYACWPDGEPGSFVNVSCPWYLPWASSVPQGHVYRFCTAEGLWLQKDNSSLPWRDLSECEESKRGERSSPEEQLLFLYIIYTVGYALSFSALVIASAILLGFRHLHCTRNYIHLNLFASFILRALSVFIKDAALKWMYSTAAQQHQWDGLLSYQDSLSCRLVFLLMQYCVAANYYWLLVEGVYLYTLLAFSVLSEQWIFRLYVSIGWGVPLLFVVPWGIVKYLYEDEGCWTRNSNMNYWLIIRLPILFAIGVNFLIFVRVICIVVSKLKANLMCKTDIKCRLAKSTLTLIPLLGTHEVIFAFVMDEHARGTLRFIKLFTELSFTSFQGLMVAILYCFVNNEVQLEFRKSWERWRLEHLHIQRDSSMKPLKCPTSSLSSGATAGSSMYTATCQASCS
Protocol for in vivo: as §1, §2, §3

On to `Cc1cc(-n2nc3c(c2-n2ccn(-c4ccc5c(cnn5C)c4F)c2=O)[C@@H]2COC[C@H](C3)N2C(=O)c2cc3cc([C@H]4CCOC(C)(C)C4)ccc3n2[C@@]2(c3noc(=O)[nH]3)C[C@@H]2C)cc(C)c1F` [Compound 121, 3-((1S,2S)-1-(5-((S)-2,2-dimethyltetrahydro-2H-pyran-4-yl)-2-((4R,8S)-3-(3-(4-fluoro-1-methyl-1H-indazol-5-yl)-2-oxo-2,3-dihydro-1H-imidazol-1-yl)-2-(4-fluoro-3,5-dimethylphenyl)-2,4,5,7,8,9-hexahydro-4,8-epiminooxocino [5,4-c]pyrazole-10-carbonyl)-1H-indol-1-yl)-2-methylcyclopropyl)-1,2,4-oxadiazol-5 (4H)-one], for which the results for the “Oral F” value in series [1] and in series [2] were 22.2% and 54.7%, respectively. Also, the total exposure AUC(0-inf) was 3330 ng·h/mL in series [2] (1.0 mg/kg iv); 9120 ng·h/mL in series [2] (5.0 mg/kg po); 182 ng·h/mL in the series “in vivo” (iv, 0.12 mg/kg); 121 ng·h/mL in “in vivo” (po, 0.36 mg/kg). In addition, the clearance was 5.02 mL/min/kg in series [2] (1.0 mg/kg iv) and 11.4 mL/min/kg in “in vivo” (iv, 0.12 mg/kg). Besides, the half-life is 3.14 h in series [2] (1.0 mg/kg iv); 3.47 h in series [2] (5.0 mg/kg po); 2.26 h in the series “in vivo” (iv, 0.12 mg/kg); 1.94 h in “in vivo” (po, 0.36 mg/kg). The Vd in series [2] (1.0 mg/kg iv) turned out to be 1.24 L/kg; in the series “in vivo” (iv, 0.12 mg/kg), 1.66 L/kg. Further, the peak concentration (Cmax) in series [2] (5.0 mg/kg po) was found to be 923 ng/mL; in the series “in vivo” (po, 0.36 mg/kg), 28 ng/mL. Also, the Tmax is 3.33 h in series [2] (5.0 mg/kg po) and 2 h in “in vivo” (po, 0.36 mg/kg). In addition, the “exposure compared with Orforglipron” value in series [2] is “significant higher exposure”. On human GLP-1R [3] (Table 1d), the “EC50 Ratio” value is on record as over 122. The results for the EC50 at human GLP-1R [3] (setting [7]), at human GLP-1R [3] (setting [8]) and at human GLP-1R [3] (setting [9]) were 82 nM, 82 nM and under 1000 nM, respectively.

With `Cc1cc(-n2nc3c(c2-n2ccn(-c4ccc5c(cnn5C)c4F)c2=O)[C@H](C)N(C(=O)c2cc4cc([C@H]5CCOC(C)(C)C5)ccc4n2[C@@]2(c4noc(=O)[nH]4)C[C@@H]2C)CC3)cc(C)c1F` [Orforglipron, orforglipron, reference compound], the “Oral F” value in series [2] is given as 11.2%. Besides, in series [2] (1.0 mg/kg iv), the AUC(0-inf) is 6840 ng·h/mL, the clearance is 2.47 mL/min/kg, the half-life is 8.13 h and the Vd is 1.42 L/kg. Moreover, in series [2] (5.0 mg/kg po), the AUC(0-inf) is 3420 ng·h/mL, the peak level (Cmax) was 240 ng/mL, the Tmax came out at 4 h and the half-life is 7.44 h. Also, in series [4] (cynomolgus monkeys, 0.36 mg/kg po vs 0.12 mg/kg iv), the “Oral F” value came to 29.4%. In series [4] (setting [10]), this compound showed an AUC(0-inf) of 517 ng·h/mL, a Vd of 0.846 L/kg, a clearance of 3.98 mL/min/kg and a half-life of 3.7 h. In series [4] (setting [11]), the AUC(0-inf) turned out to be 456 ng·h/mL, the Cmax is 79.5 ng/mL, the Tmax worked out at 1.33 h and the half-life is 4.24 h.

As for `Cc1cc(-n2nc3c(c2-n2ccn(-c4ccc5c(cnn5C)c4F)c2=O)[C@@H]2CC[C@H](C3)N2C(=O)c2cc3cc([C@H]4CCOC5(CC5)C4)ccc3n2[C@@]2(c3noc(=O)[nH]3)C[C@@H]2C)cc(C)c1F` [Compound 214, 3-((1S,2S)-1-(2-((4S,7R)-3-(3-(4-fluoro-1-methyl-1H-indazol-5-yl)-2-oxo-2,3-dihydro-1H-imidazol-1-yl)-2-(4-fluoro-3,5-dimethylphenyl)-2,4,5,6,7,8-hexahydro-4,7-epiminocyclohepta [c]pyrazole-9-carbonyl)-5-((S)-4-oxaspiro[2.5]octan-7-yl)-1H-indol-1-yl)-2-methylcyclopropyl)-1,2,4-oxadiazol-5 (4H)-one], the “Oral F” value in series [1] came out at 54.0%. In addition, in series [2], the “Oral F” value amounted to 32.6% and the “exposure compared with Orforglipron” value was “significant higher exposure”. Further, in series [2] (1.0 mg/kg iv), the AUC(0-inf) came out at 4640 ng·h/mL, the clearance is 3.68 mL/min/kg, the half-life was 4.83 h and the Vd was 1.08 L/kg. For the same compound, in series [2] (5.0 mg/kg po), the AUC(0-inf) was determined as 7510 ng·h/mL, the Cmax was determined as 640 ng/mL, the Tmax stood at 2.67 h and the half-life is 5.14 h. The “glucose-stimulated insulin secretion in islets from a non-diabetic donor” value in series [5] is “increases in glucose-stimulated insulin secretion”. For the same compound, in the series “in vivo” (iv, 0.12 mg/kg), the AUC(0-inf) was 619 ng·h/mL, the Vd is 0.77 L/kg, the clearance was 3.4 mL/min/kg and the half-life is 3.66 h. Further, in the series “in vivo” (po, 0.36 mg/kg), the total exposure AUC(0-inf) stood at 1000 ng·h/mL, the peak level (Cmax) was 149 ng/mL, the Tmax came to 2 h and the half-life is 3.56 h. Also, the “EC50 Ratio” value on human GLP-1R [3] (Table 1d) is listed as over 13. Further, at human GLP-1R [3] (setting [7]), the EC50 worked out at 52.3 nM. At human GLP-1R [3] (setting [8]), the EC50 stood at 52.3 nM. Also, the EC50 at human GLP-1R [3] (setting [9]) was under 1000 nM.

In the case of `Cc1cc(-n2nc3c(c2-n2ccn(-c4ccc5c(cnn5C)c4F)c2=O)[C@@H]2COC[C@H](C3)N2C(=O)c2cc3cc(C4CCOC(C)(C)C4)cc(F)c3n2[C@@]2(c3noc(=O)[nH]3)C[C@@H]2C)cc(C)c1F` (stereo partly drawn) [Compound 619, 3-((1S,2S)-1-(5-(2,2-dimethyltetrahydro-2H-pyran-4-yl)-7-fluoro-2-((4R,8S)-3-(3-(4-fluoro-1-methyl-1H-indazol-5-yl)-2-oxo-2,3-dihydro-1H-imidazol-1-yl)-2-(4-fluoro-3,5-dimethylphenyl)-2,4,5,7,8,9-hexahydro-4,8-epiminooxocino [5,4-c]pyrazole-10-carbonyl)-1H-indol-1-yl)-2-methylcyclopropyl)-1,2,4-oxadiazol-5(4H)-one], at human GLP-1R [6], a half-maximal effect (EC50) was put at 0.0054 µM.
